# Measurements published in paper PMC8533176, “1,5-Benzodiazepin-2(3H)-ones: In Vitro Evaluation as Antiparkinsonian Agents” (Antioxidants, 2021).
# Where two headings read alike, the source gives them in different places.
# Tests used:
# HepG2 cells = assay: Cytotoxicity, MTT assay, HepG2; type: cell-based; settings: Homo sapiens
# Description: (§1) All compounds tested were dissolved and eventually further diluted in dimethylsulfoxide (DMSO). After overnight incubation, the cells were treated with different compound concentrations (5, 10, 20, 50, 100, 150, 200 µM) in a final volume of 200 µL with four replicates each. […] Cell proliferation or viability was measured using the 3-(4,5-dimethylthiazol-2-yl)-2,5-diphenyl tetrazolium bromide (MTT) assay. The MTT assay was optimized taking into account the number of cells plated per well, to work in the linear part of the cell density vs. MTT absorbance calibration curve, which allows achieving a maximum absorbance in the range of 0.8–1.0 in each well at the end of the experiment. In addition to that, the number of cells seeded for each experiment was optimized in agreement with the time scale of the experiment.
# (§2) After cell treatment, 20 µL of MTT (5 mg/mL) was added to each well, and the plate was incubated at 37 °C in the dark for 2 h. Supernatants were removed, and the formazan crystals were solubilized in DMSO (200 µL/well), under 10 min shaking at room temperature. The reduction of MTT was quantified by absorbance at 570 nm in a Varioskan microplate reader (Thermo Fisher Scientific, Vantaa, Finland). Effects of the test compounds on cell viability were calculated using cells treated with a vehicle as a control. For IC50 and LD50 calculations, the data were subjected to linear regression analysis, and the regression lines were plotted for the best fit. The IC50 (inhibition of cell viability) concentrations were calculated using the respective dose–response curves.
# [1] = ABTS radical scavenging assay; type: biochemical; settings: for IC50: 30-min incubation; for ABTS Assay TEAC50: Equivalent antioxidant capacity at Trolox 50 mM; for ABTS Assay TEAC100: Equivalent antioxidant capacity at Trolox 100 mM
# Description: The mixture was stored in the dark at room temperature for 16 h. […] All the compounds tested were dissolved in EtOH. […] The degree of decolorization was calculated as the percentage reduction of absorbance. […] Trolox was used as a reference antioxidant.
# [2] = Kinetic solubility by UV spectrometry; type: physicochemical; settings: PBS 50 mM, aqueous buffer, kinetic from dmso stock
# Description: A modified protocol was used from that described by Hoelke et al. for the determination of the kinetic solubility from DMSO compound solutions. A compound calibration curve (compound concentration vs UV absorption) was prepared for each compound with concentrations of 10, 20, 50, 100, and 200 µM. Each compound dilution was carried out by pipetting defined volumes of a 20 mM stock compound solution in DMSO into vials and adding PBS 50 mM to reach a final volume of 1 mL/well. The final amount of DMSO per well was 2%. For the lower compound concentrations, an additional volume of DMSO was added to each well to reach 2% DMSO. Then, 200 µL of each dilution was transferred to a new 96-well culture plate for the measurement of the UV-spectra. One well in each row was left without a compound as a blank, and its UV absorbance was used as an offset correction. The experiments were performed in duplicate.
# In parallel, compound saturation solutions were reached and filtered from 20 mM compound stock in DMSO: 10 µL of a 20 mM stock solution was dispensed into 190 µL of PBS 10 mM. The solutions were mixed, shaken on a microplate shaker for two hours, and then 160 µL of each solution was filtered and transferred to a new well plate for UV absorption measurement.
# Measurement of the UV-spectra was performed using a Varioskan microplate reader, and spectra were taken in the range of 270–600 nm. Spectral bandwidth was set to 5 nm, and the data pint interval was 10 nm. The experiments were carried out in triplicate.
# [3] = Ferric reducing antioxidant power (FRAP) assay; type: biochemical; parameters: FRAP Assay Trolox Equivalents: unit not given here; settings: for FRAP Assay Antioxidant Capacity (%) at 100 uM: compound at 100 uM; for FRAP Assay Antioxidant Capacity (%) at 200 uM: compound at 200 uM
# Description: FRAP reagent was prepared by mixing 10 mL of 300 mM acetate buffer with 1 mL of 10 mM 2,4,6-tripyridyl-S-triazine (TPTZ) in HCl 40 mM and 1mL of FeCl3·6H2O 20 mM. […] Trolox was used as assay control.
# SH-SY5Y cells = assay: Cytotoxicity, MTT assay, SH-SY5Y; type: cell-based; settings: Homo sapiens, read-out: SH-SY5Y IC50
# Description: as §1, §2
# [4] = HepG2, MTT, cytotoxicity, read-out: HepG2 IC50
Structure (SMILES),IC50 [1] [µM],solubility [2] [µM],melting point [°C],IC50 (HepG2 cells; [4]) [µM],ABTS Assay TEAC50 [1],ABTS Assay TEAC100 [1],FRAP Assay Trolox Equivalents [3],FRAP Assay Antioxidant Capacity (%) at 100 uM [3] [%],FRAP Assay Antioxidant Capacity (%) at 200 uM [3] [%],"IC50 (SH-SY5Y cells; MTT, cytotoxicity) [µM]","IC50 (HepG2 cells; HepG2, read-out: HepG2 IC50) [µM]",IC50 (SH-SY5Y cells) [µM]
"Cc1c(C)c2c(c(C)c1O)CCC(C)(C(=O)O)O2 (centres unmarked) [Trolox, reference compound]",25.1 ± 1.2,–,–,–,1,1,1,51.3,100,–,–,–
"CN1C(=O)CC(c2ccccc2F)=Nc2c(F)c(F)c(F)c(F)c21 [Compound 6, 6,7,8,9-tetrafluoro-4-(2-fluorophenyl)-1-methyl-1H-1,5-benzodiazepin-2(3H)-one]",> 1000,< 200,142.6,–,–,–,0.02,1.1,1.6,–,> 250,> 250
"COc1cc(C2=Nc3cc(C)c(C)cc3NC(=O)C2)cc(OC)c1OC [Compound 21, 7,8-Dimethyl-4-(3,4,5-trimethoxyphenyl)-1H-1,5-benzodiazepin-2(3H)-one]",137 ± 5.3,< 100,208.5,> 250,0.36,0.21,0.89,47.2,60.9,> 250,–,–
"CN1C(=O)CC(c2ccccc2)=Nc2ccccc21 [Compound 19, 1-Methyl-4-phenyl-1H-1,5-benzodiazepin-2(3H)-one]",> 1000,> 200,–,–,–,–,0.03,1.7,3.5,–,> 250,201 ± 27
"CN1C(=O)CC(c2ccccc2)=Nc2c(F)c(F)c(F)c(F)c21 [Compound 4, 6,7,8,9-tetrafluoro-4-phenyl-1-methyl-1H-1,5-benzodiazepin-2(3H)-one]",> 1000,–,133.7,> 250,–,–,0.02,1.1,1.3,> 250,–,–
"COc1cc(C2=Nc3cc(Cl)c(Cl)cc3NC(=O)C2)cc(OC)c1OC [Compound 23, 7,8-Dichloro-4-(3,4,5-trimethoxyphenyl)-1H-1,5-benzodiazepin-2(3H)-one]",> 500,< 20,246,–,–,–,0.03,2.7,4.6,> 250,–,–
"CN1C(=O)CC(c2ccccc2)=Nc2ccc(F)cc21 [Compound 12, 8-Fluoro-1-methyl-4-phenyl-1H-1,5-benzodiazepin-2(3H)-one]",> 1000,> 200,–,–,–,–,0.02,0.8,1.4,–,230 ± 25.5,240 ± 24.9

# Continued, in another order:
IC50 [1] [µM],solubility [2] [µM],melting point [°C],Structure (SMILES),IC50 (HepG2 cells; [4]) [µM],ABTS Assay TEAC50 [1],ABTS Assay TEAC100 [1],FRAP Assay Trolox Equivalents [3],FRAP Assay Antioxidant Capacity (%) at 100 uM [3] [%],FRAP Assay Antioxidant Capacity (%) at 200 uM [3] [%],"IC50 (SH-SY5Y cells; MTT, cytotoxicity) [µM]","IC50 (HepG2 cells; HepG2, read-out: HepG2 IC50) [µM]",IC50 (SH-SY5Y cells) [µM]
658 ± 96,< 20,248.1,"O=C1CC(c2ccccc2F)=Nc2c(F)c(F)c(F)c(F)c2N1 [Compound 5, 6,7,8,9-tetrafluoro-4-(2-fluorophenyl)-1H-1,5-benzodiazepin-2(3H)-one]",> 250,0.32,0.15,0.03,1.4,5.5,> 250,–,–
635 ± 87,< 50,211.7,"O=C1CC(c2ccccc2Cl)=Nc2c(F)c(F)c(F)c(F)c2N1 [Compound 7, 6,7,8,9-tetrafluoro-4-(2-chlorophenyl)-1H-1,5-benzodiazepin-2(3H)-one]",201 ± 13.1,0.35,0.16,0.01,0.6,0.4,135 ± 11.2,–,–
496 ± 82,< 10,–,"O=C1CC(c2ccccc2)=Nc2cc(F)cc(F)c2N1 [Compound 15, 7,9-Difluoro-4-phenyl-1H-1,5-benzodiazepin-2(3H)-one]",> 250,0.34,0.15,0.07,3.8,6.2,> 250,–,–
> 1000,> 200,–,"CN1C(=O)CC(c2ccccc2)=Nc2cc(F)cc(F)c21 [Compound 16, 7,9-Difluoro-1-methyl-4-phenyl-1H-1,5-benzodiazepin-2(3H)-one]",> 250,–,–,0.00,0,0,> 250,–,–
> 1000,< 50,221.5,"O=C1CC(c2ccccc2)=Nc2c(F)cc(F)cc2N1 [Compound 17, 6,8-Difluoro-4-phenyl-1H-1,5-benzodiazepin-2(3H)-one]",> 250,–,–,0.04,1.8,2.5,> 250,–,–
> 500,< 100,241.8,"COc1cc(C2=Nc3cc(F)c(F)cc3NC(=O)C2)cc(OC)c1OC [Compound 22, 7,8-Difluoro-4-(3,4,5-trimethoxyphenyl)-1H-1,5-benzodiazepin-2(3H)-one]",> 250,–,–,0.30,15.7,13.7,> 250,–,–
